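Growth conditions: 96-well plates. Treatment: test compound, 48 hours, 5 concentrations. Analysis: linear interpolation between bracketing concentrations; unreached endpoints set to highest concentration. GI50 = concentration required for 50% inhibition of growth.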 Active and inactive are the calls of the source. Rule as the data show it: active = GI50 up to about 1.1 µM and inactive = higher.
Tests used:
Assay in all cases: inhibition of tumour cell growth, NCI panel, 48 h
[1] = tested on: M14
[2] = tested on: NCI-H226
[3] = tested on: EKVX
[4] = tested on: SR
[5] = tested on: Malme-3M
[6] = tested on: SK-MEL-5
[7] = tested on: UO-31
[8] = tested on: SNB-75
[9] = tested on: SF-539
[10] = tested on: DU-145
[11] = tested on: OVCAR-8
[12] = tested on: SW-620
[13] = tested on: SK-MEL-28
[14] = tested on: UACC-62
[15] = tested on: NCI-H23
[16] = tested on: COLO 205
[17] = tested on: IGROV-1
[18] = tested on: RPMI-8226
[19] = tested on: HL-60
[20] = tested on: U-251

Measured: GI50

CC(C)NC1(C(N)=O)CCN(Cc2ccccc2)CC1
inactive: [1] > 100 µM | [2] > 100 µM | [3] > 100 µM | [4] > 100 µM | [5] > 100 µM | [6] > 100 µM | [7] > 100 µM | [8] > 100 µM | [9] > 100 µM | [10] > 100 µM | [11] > 100 µM | [12] > 100 µM | [13] > 100 µM | [14] > 100 µM | [15] > 100 µM | [16] > 100 µM | [17] > 100 µM | [18] > 100 µM | [19] > 100 µM | [20] > 100 µM

COc1ccc(C(=O)N2CCN(c3ccc4c(c3)OCC(=O)N4)CC2)cc1
inactive: [1] > 100 µM | [2] > 100 µM | [3] 94 µM | [4] 67.3 µM | [5] > 100 µM | [6] > 100 µM | [7] > 100 µM | [8] > 100 µM | [9] > 100 µM | [10] > 100 µM | [11] > 100 µM | [12] > 100 µM | [13] > 100 µM | [14] > 100 µM | [15] > 100 µM | [16] > 100 µM | [17] > 100 µM | [18] > 100 µM | [19] 64.6 µM | [20] > 100 µM

CC1(C)OC(C(C)(C)O)C(C(C)(C)O)O1 (stereo not given)
inactive: [1] > 100 µM | [2] > 100 µM | [3] > 100 µM | [4] > 100 µM | [5] > 100 µM | [6] > 100 µM | [7] > 100 µM | [8] > 100 µM | [9] > 100 µM | [10] > 100 µM | [11] > 100 µM | [12] > 100 µM | [13] > 100 µM | [14] > 100 µM | [15] > 100 µM | [16] > 100 µM | [17] > 100 µM | [18] > 100 µM | [19] > 100 µM | [20] > 100 µM

— ChEMBL document CHEMBL1201862, “PubChem BioAssay data set” (2004)
